Assay results reported in patent US9297810B2, “CD40L-binding agent based platelet aggregation assays” (BIOGEN IDEC MA INC., priority 2005, dated 2016).
Values joined by “and” are separate entries in the source; they are usually repeats but may differ in a detail not shown here. Equal entries are not always repeated. “Also recorded” adds a separate entry of the source.

Assays:
[1] = tested on: ADP-Activated Platelets / resting platelets (platelet rich plasma); test: Platelet aggregation assay (PRP, Biodata PAP-4 aggregation profiler); assay type: cell-based, human; details: for effect on aggregation of resting platelets: no ADP; for effect on the aggregation of ADP-activated platelets: wide range of ADP concentrations
Description: All platelets used in the in vitro platelet aggregation experiments were isolated from healthy human volunteers who denied ingesting aspirin or aspirin containing compounds within 10 days. Aggregation assays were performed on PRP. Approximately 50 mL of whole blood was collected in aliquots in 4.5 mL vacutainer tubes containing 0.5 mL of 3.8% sodium citrate. PRP was prepared by centrifuging the anticoagulated blood at 200 g for 10 minutes and harvesting the supernatant.
The Biodata 4-channel platelet aggregation profiler (PAP-4; Biodata Corp., Hatboro, Pa.) was blanked using a cuvette containing only platelet poor plasma (PPP). A 350 μL aliquot of PRP, containing approximately 2 to 5×10^8/mL platelets, was added to a cuvette containing a stir bar. Anti-CD40L antibody, human IgG, normal human serum, CD40-Fc, or anti-hFc were added in a total volume of 100 μL. The loaded cuvette was placed in the machine and the reaction components mixed prior to the addition of ADP.
Aggregation was initiated with the addition of sub-optimal concentration of ADP in 50 μL (final concentration varies for each individual sample). The aggregation profiler has four ports, which can run simultaneously. An aggregation tracing was generated for each sample for four minutes following the addition of ADP. At the end of the tracing, the instrument calculates the percentage of aggregation by comparing the transmission of light through the sample to the transmission of light through the PPP blank. A titration was performed at the beginning of each experiment, and subsequent runs were performed at a suboptimal ADP concentration.

[2] = target: T1, CD40L on the platelet surface (Homo sapiens, UniProt P29965); test: Binding of biotin-conjugated anti-CD40L antibody to platelets (western blotting with HRP-streptavidin); details: data not shown
T1 construct: Platelets were incubated with a biotin-conjugated anti-CD40L antibody to determine whether CD40L is present on the surface of platelets; endogenous in cells
T1 sequence (P29965 1-261): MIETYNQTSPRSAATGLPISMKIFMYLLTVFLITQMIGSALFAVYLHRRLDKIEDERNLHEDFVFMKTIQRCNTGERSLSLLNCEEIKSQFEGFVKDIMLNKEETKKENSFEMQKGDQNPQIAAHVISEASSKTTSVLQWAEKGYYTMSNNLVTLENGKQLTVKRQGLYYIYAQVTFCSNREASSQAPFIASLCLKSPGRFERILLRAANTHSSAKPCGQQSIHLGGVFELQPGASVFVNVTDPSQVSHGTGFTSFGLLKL

[3] = result in words, listed as Anti-CD40L antibody

BG9588: Research-grade anti-CD40L antibody prepared at Biogen; table column BG9588 corresponds to it
effect on aggregation of cross-linking of antibody bound to CD40L on activated platelets ([1]; 2 μg/mL, cross-linked with anti-hFc (Table 5)): may enhance aggregation under limited conditions | effect on platelet aggregation of anti-CD40L antibody cross-linked by sCD40L ([1]; FIG. 3, 233 μg/mL antibody and 30 μg/mL sCD40L, PRP of ten healthy donors, sub-optimal ADP): affected; also recorded: enhanced aggregation occurred with platelets isolated from some, but not all, healthy donors; also recorded: induced | effect on platelet aggregation together with sCD40L ([1]; FIG. 4, 200 μg/mL with sCD40L 30 μg/mL, 0.75 μM ADP, one donor): specifically enhanced | % of Aggregation ([1]; Table 1, 5 μg/mL, ADP 0.00 μM (resting platelets)): 11% | % of Aggregation ([1]; Table 1, 5 μg/mL, ADP 0.37 μM): 15% | % of Aggregation ([1]; Table 1, 5 μg/mL, ADP 0.70 μM): 24% | % of Aggregation ([1]; Table 1, 5 μg/mL, ADP 2.00 μM): 21% | % of Aggregation ([1]; Table 1, 5 μg/mL, ADP 6.70 μM): 71% | % of Aggregation ([1]; Table 1, 5 μg/mL, ADP 20.00 μM, PRP, four-minute tracing): 72% | % of Aggregation ([1]; Table 2, 5 μg/mL, ADP 0.37 μM): 10% | % of Aggregation ([1]; Table 2, 5 μg/mL, ADP 0.70 μM): 10% | % of Aggregation ([1]; Table 2, 5 μg/mL, ADP 2.00 μM): 12% | % of Aggregation ([1]; Table 2, 5 μg/mL, ADP 6.70 μM): 78% | % of Aggregation ([1]; Table 2, 5 μg/mL, ADP 20.00 μM): 80% | % of Aggregation ([1]; Table 3, 5 μg/mL, ADP 0.00 μM (resting platelets)): 3% | % of Aggregation ([1]; Table 3, 5 μg/mL, ADP 0.30 μM): 10% | % of Aggregation ([1]; Table 3, 5 μg/mL, ADP 0.60 μM): 10% | % of Aggregation ([1]; Table 3, 5 μg/mL, ADP 1.25 μM): 12% | % of Aggregation ([1]; Table 3, 5 μg/mL, ADP 2.50 μM): 62% | % of Aggregation ([1]; Table 3, 5 μg/mL, ADP 5.00 μM): 67% | % of Aggregation ([1]; Table 3, 5 μg/mL, ADP 10.00 μM): 69% | % of Aggregation ([1]; Table 3, 5 μg/mL, ADP 20.00 μM): 68% | % of Aggregation ([1]; Table 4, 1.25 μg/mL, ADP 0.00 μM): 3% | % of Aggregation ([1]; Table 4, 2.50 μg/mL, ADP 0.00 μM): 5% | % of Aggregation ([1]; Table 4, 5.00 μg/mL, ADP 0.00 μM): 3% | % of Aggregation ([1]; Table 4, 10.00 μg/mL, ADP 0.00 μM): 3% | % of Aggregation ([1]; Table 4, 20.00 μg/mL, ADP 0.00 μM): 3% | % of Aggregation ([1]; Table 5, BG9588 2 μg/mL + anti-hFc 2.22 μg/mL, ADP 0.0 μM): 3% | % of Aggregation ([1]; Table 5, BG9588 2 μg/mL + anti-hFc 2.22 μg/mL, ADP 0.5 μM): 8% | % of Aggregation ([1]; Table 5, BG9588 2 μg/mL + anti-hFc 2.22 μg/mL, ADP 1.0 μM): 76% | % of Aggregation ([1]; Table 5, BG9588 2 μg/mL + anti-hFc 6.66 μg/mL, ADP 0.0 μM): 3% | % of Aggregation ([1]; Table 5, BG9588 2 μg/mL + anti-hFc 6.66 μg/mL, ADP 0.5 μM): 8% | % of Aggregation ([1]; Table 5, BG9588 2 μg/mL + anti-hFc 6.66 μg/mL, ADP 1.0 μM): 84% | % of Aggregation ([1]; Table 5, BG9588 2 μg/mL + anti-hFc 20.00 μg/mL, ADP 0.0 μM): 3% and 4% | % of Aggregation ([1]; Table 5, BG9588 2 μg/mL + anti-hFc 20.00 μg/mL, ADP 0.5 μM): 8% | % of Aggregation ([1]; Table 5, BG9588 2 μg/mL + anti-hFc 20.00 μg/mL, ADP 1.0 μM): 83% | % of Aggregation ([1]; Table 5, BG9588 2 μg/mL alone, ADP 0.0 μM): 3% | % of Aggregation ([1]; Table 6, resting platelets, BG9588 2 μg/mL + serum 0.00032x): 6% | % of Aggregation ([1]; Table 6, resting platelets, BG9588 2 μg/mL + serum 0.0016x): 6% | % of Aggregation ([1]; Table 6, resting platelets, BG9588 2 μg/mL + serum 0.008x): 7% | % of Aggregation ([1]; Table 6, resting platelets, BG9588 2 μg/mL + serum 0.04x): 6% | % of Aggregation ([1]; Table 6, resting platelets, BG9588 2 μg/mL + serum 0.2x): 6% | % of Aggregation ([1]; Table 6, resting platelets, BG9588 2 μg/mL + serum 1.0x): 9% | effect on platelet aggregation of cross-linked anti-CD40L antibody ([1]; cross-linked with 2.22 μg/mL anti-hFc, ADP 1.0 μM (Table 5 lines 109 and 110)): increased aggregation | effect on platelet aggregation of cross-linked anti-CD40L antibody ([1]; cross-linked with 20 μg/mL or 6.66 μg/mL anti-hFc): did not affect | enhancing effect on platelet aggregation of cross-linked anti-CD40L antibody ([1]; cross-linked with anti-hFc, lower concentration of ADP): not observed | effect on aggregation of resting platelets [1, 3]: do not induce | effect on aggregation of resting platelets ([1]; result in words, listed as anti-CD40L antibody): not affected | effect on platelet aggregation ([1]; result in words): does not affect | effect on the aggregation of ADP-activated platelets [1, 3]: do not induce the aggregation of resting platelets or affect; also recorded: do not affect | effect on the aggregation of ADP-activated platelets ([1]; result in words, listed as Research-grade anti-CD40L antibody): did not affect | effect on platelets in the presence of normal human serum ([1]; with normal human serum (Table 6)): not affected

B1: sCD40L: recombinant soluble CD40 ligand prepared at Biogen, cross-linking agent (protein, UniProt P29965 47-261, looked up)
extracellular domain: HRRLDKIEDERNLHEDFVFMKTIQRCNTGERSLSLLNCEEIKSQFEGFVKDIMLNKEETKKENSFEMQKGDQNPQIAAHVISEASSKTTSVLQWAEKGYYTMSNNLVTLENGKQLTVKRQGLYYIYAQVTFCSNREASSQAPFIASLCLKSPGRFERILLRAANTHSSAKPCGQQSIHLGGVFELQPGASVFVNVTDPSQVSHGTGFTSFGLLKL
modifications: extracellular domain
notes: recombinant soluble CD40 ligand prepared at Biogen, cross-linking agent
effect of preincubation on binding of biotin-conjugated anti-CD40L antibody to activated platelets [2]: inhibited binding
